Holding throughout (type): cell-based
For one experiment, the target named is T1, hKv1.5 (Homo sapiens, UniProt P22460).
T1 construct: expressed in transfected cells; host or cells: CHO-K1
Nature of the experiment: Whole-cell patch clamp, Kv1.5 ionic current in CHO-K1 cells. The following applies: +30 mV, 500 ms, holding −80 mV, mean ± SD, n = 4–7, read-out: IC50, inhibition of Kv1.5 current (full inhibition). The method, then:
(§1) The cDNA of hKv1.1, hKv1.2, hKv1.3, rKv1.4, hKv1.5, mKv1.6, and hKv1.7 were subcloned into mammalian expression vectors pcDNA3.1 or pCMV-blank vectors, as well as other plasmids described previously ([35]). Channel mutants were generated by site-directed mutations. Briefly, the parental channel plasmid was amplified using a pair of oppositely directed primers harboring the designed mutation site, with KOD Fx (TOYOBO Co, Ltd). The resulting PCR mix was treated with FastDigest DpnI (Thermo Fisher Scientific) to remove the methylated template. Ten microliters of the digested product was then used to transform 100 μl E. coli DH5α competent cells. […]
(§2) CHO-K1 cells were selected for expressing Kv channels due to their lack of endogenous Kv channels, while HEK293 or ND7/23 cells were used for Nav and Cav channel expression. […] After 4 to 6 h transfection, cells were seeded onto poly-lysine–coated coverslips, and 24 to 36 h later, transfected cells were ready for patch-clamp analysis. […]
(§3) For Kv current recordings, the bath solution contained (in mM) the following: 140 NaCl, 5 KCl, 1 MgCl2, 2 CaCl2, 10 glucose, and 10 Hepes (pH 7.3, adjusted with NaOH), and the pipette solution contained (in mM) the following: 140 KCl, 2.5 MgCl2, 11 EGTA, and 10 Hepes (pH 7.3, adjusted with KOH). […] The steady-state fast inactivation of Kv1.3 was measured using a two-pulses protocol. […]

For another experiment, the target named is T2, hKv1.7 (Homo sapiens, UniProt Q96RP8).
T2 construct: expressed in transfected cells; host or cells: CHO-K1
T2 sequence (Q96RP8 whole entry): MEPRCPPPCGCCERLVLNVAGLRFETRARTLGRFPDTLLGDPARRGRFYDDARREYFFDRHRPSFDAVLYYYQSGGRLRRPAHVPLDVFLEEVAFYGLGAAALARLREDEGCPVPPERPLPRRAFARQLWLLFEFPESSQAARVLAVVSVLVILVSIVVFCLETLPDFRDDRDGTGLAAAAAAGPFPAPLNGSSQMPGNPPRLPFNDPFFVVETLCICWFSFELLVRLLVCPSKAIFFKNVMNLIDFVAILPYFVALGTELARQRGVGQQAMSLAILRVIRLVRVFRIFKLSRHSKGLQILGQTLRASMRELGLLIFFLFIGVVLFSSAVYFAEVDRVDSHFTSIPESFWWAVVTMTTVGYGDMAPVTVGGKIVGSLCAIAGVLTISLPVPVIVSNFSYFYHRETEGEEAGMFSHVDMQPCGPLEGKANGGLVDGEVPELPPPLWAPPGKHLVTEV
Nature of the experiment: Whole-cell patch clamp, Kv1.7 ionic current in CHO-K1 cells. The following applies: mean ± SD. The method, then: as §1, §2, §3

For the next experiment, the system named is Cav2.2. Nature of the experiment: Selectivity patch clamp, non-Kv1 channels. The following applies: 10 μM MrVIII; n = 3–5. The method, then: (§4) CHO-K1 cells were selected for expressing Kv channels due to their lack of endogenous Kv channels, while HEK293 or ND7/23 cells were used for Nav and Cav channel expression. CHO-K1 cells were cultured in a Dulbecco's modified Eagle's medium/Ham's F-12 nutrient mixture (DMEM-F12) medium, and HEK293T and ND7/23 cells in DMEM medium, all supplemented with 10% fetal bovine serum and 1% penicillin-streptomycin (all from Gibco, Thermo Fisher Scientific, Inc) under standard conditions (37 °C, 5% CO2, and saturated humidity). These cell lines were purchased from Stem Cell Bank, Chinese Academy of Sciences. Channel plasmids were cotransfected with pEGFP-N1 (encoding GFP) into the respective cells using lipofectamine 2000, following the manufacturer's instructions (Invitrogen, Thermo Fisher Scientific, Inc.). Nav1.9-GFP plasmid was transfected into ND7/23 using the X-tremeGENE HP DNA Transfection Reagent (Roche). After 4 to 6 h transfection, cells were seeded onto poly-lysine–coated coverslips, and 24 to 36 h later, transfected cells were ready for patch-clamp analysis.
(§5) Patch clamp experiments were conducted using an electrophysiology platform comprising a MultiClamp 700B amplifier and an Axon Digidata 1550 AD/DA convertor (Axon Instruments). Data acquisition was performed with pClamp 10.5 software (Axon Instruments). All experiments were performed at room temperature.

In another experiment the test system is Cav3.2-3.3. Nature of the experiment: Selectivity patch clamp, non-Kv1 channels. As to conditions: 10 μM MrVIII; n = 3–5. The method, then:
as §4, §5

The test system of a further experiment is Nav1.2. Nature of the experiment: Selectivity patch clamp, non-Kv1 channels. The following applies: 10 μM MrVIII; n = 3–5. On the procedure:
as §4, §5

In a further experiment the test system is Nav1.7-1.9. Nature of the experiment: Selectivity patch clamp, non-Kv1 channels. As to conditions: 10 μM MrVIII; n = 3–5. On the procedure: as §4, §5
A further experiment concerns Cav1.3. Nature of the experiment: Selectivity patch clamp, non-Kv1 channels. The following applies: 10 μM MrVIII; n = 3–5. The method, then:
as §4, §5

The test system of another experiment is Nav1.4-1.5. Nature of the experiment: Selectivity patch clamp, non-Kv1 channels. As to conditions: 10 μM MrVIII; n = 3–5. The method, then: as §4, §5

Each structure is given as a SMILES string. Bridge positions count the residues as written; N and C are the ends. Peptide text beside a SMILES is read from it.

T1 sequence (P22460 whole entry): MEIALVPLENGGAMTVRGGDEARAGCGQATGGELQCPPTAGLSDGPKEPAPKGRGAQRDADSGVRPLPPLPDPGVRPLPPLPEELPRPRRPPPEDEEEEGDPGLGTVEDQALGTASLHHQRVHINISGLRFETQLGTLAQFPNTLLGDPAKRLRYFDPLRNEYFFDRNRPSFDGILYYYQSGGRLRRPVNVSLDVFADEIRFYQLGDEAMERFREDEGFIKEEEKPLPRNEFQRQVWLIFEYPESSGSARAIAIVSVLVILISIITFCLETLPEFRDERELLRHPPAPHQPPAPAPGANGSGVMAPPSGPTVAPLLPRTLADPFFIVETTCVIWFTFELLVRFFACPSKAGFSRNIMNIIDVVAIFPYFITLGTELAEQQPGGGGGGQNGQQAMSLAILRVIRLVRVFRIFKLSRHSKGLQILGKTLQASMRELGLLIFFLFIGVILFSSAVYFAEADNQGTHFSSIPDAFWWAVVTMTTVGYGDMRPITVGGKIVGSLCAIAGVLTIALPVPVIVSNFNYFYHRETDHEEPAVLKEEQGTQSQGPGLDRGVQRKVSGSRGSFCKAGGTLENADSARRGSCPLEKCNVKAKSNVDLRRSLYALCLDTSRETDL

Regarding `CC[C@H](C)[C@@H]1NC(=O)[C@H](Cc2ccc(O)cc2)NC(=O)[C@H](CCC(N)=O)NC(=O)[C@@H]2CCCN2C(=O)[C@@H]2CSSC[C@H](NC(=O)[C@H](C)NC(=O)[C@H](CO)NC(=O)[C@H](CCC(=O)O)NC(=O)[C@H](CCC(=O)O)NC(=O)[C@@H](N)[C@@H](C)O)C(=O)NCC(=O)NCC(=O)N[C@@H](Cc3ccccc3)C(=O)N[C@@H](CC(N)=O)C(=O)N[C@@H](C)C(=O)N[C@@H](CCCNC(=N)N)C(=O)N[C@H]3CSSC[C@H](NC1=O)C(=O)N[C@@H](CCCCN)C(=O)NCC(=O)N[C@@H](Cc1c[nH]c4ccccc14)C(=O)N[C@@H](CCCNC(=N)N)C(=O)N[C@@H]([C@@H](C)O)C(=O)N[C@@H](CCCCN)C(=O)N[C@@H](CCCNC(=N)N)C(=O)N[C@H](C(=O)N[C@@H](CC(C)C)C(=O)N[C@@H](CC(N)=O)C(=O)N1CCC[C@H]1C(=O)O)CSSC[C@H](NC(=O)[C@H](CCCCN)NC(=O)[C@H](Cc1c[nH]cn1)NC(=O)[C@H](CC(C)C)NC(=O)[C@@H]1CCCN1C3=O)C(=O)N2` [MrVIII] (H-TEESACGGFNARCPLHKCCPQYICKGWRTKRCLNP-OH; disulfide 6-19, 13-24, 18-32; N-terminus and C-terminus assumed), the IC50 stood at 5.7 ± 2.2 nM on hKv1.5 and 199 ± 50.3 nM on hKv1.7 (current measured at 50 ms of a 500 ms depolarization to +30 mV, n = 4–7). For the same molecule, the “inhi%(495 ms), Kv1.7 current” value on hKv1.7 (10 μM (saturating), current at 495 ms, +30 mV) was determined as 33.3 ± 3.0%. The “inhibition of Cav2.2 current” value in the experiment on Cav2.2 is “did not remarkably inhibit”. The “inhibition of Cav3.2-3.3 currents” value with Cav3.2-3.3 is reported as “did not remarkably inhibit”. Moreover, the “inhibition of Nav1.2 current” value in the experiment with Nav1.2 was “did not remarkably inhibit”. Further, in the experiment with Nav1.7-1.9, the “inhibition of Nav1.7-1.9 currents” value is “did not remarkably inhibit”. Also, the “inhibition of Cav1.3 current” value with Cav1.3 is “did not remarkably inhibit”. In addition, the “inhibition of Nav1.4-1.5 currents” value in the experiment with Nav1.4-1.5 is listed as “did not remarkably inhibit”.

These data come from PMC11984586, “A novel spider toxin as a selective antagonist of the Kv1 subfamily of voltage-gated potassium channels through gating modulation” (The Journal of Biological Chemistry, 2025).
